Data set [1] addresses cytochrome C oxidase. Details: method as in doi:10.1016/j.molliq.2017.02.027. The following applies: cited from earlier work; for pIC50: read-out: IC50 for the inhibition of cytochrome C oxidase.
Data set [2] concerns the target T1, bovine serum albumin (BSA) (Bos taurus, UniProt P02769).
T1 construct: Bovine serum albumin (BSA), heat shock fraction, protease-free, fatty acid-free, essentially globulin free (pH 7, ≥98%); purchased Merck (Darmstadt, Germany)
Kind of data set: BSA fluorescence quenching (Stern–Volmer and double-log analysis). To be noted: 25 °C; for bimolecular quenching rate constant kq: pH 7.4, τo taken as 10^−8 s; for Binding constant KA / Stern–Volmer quenching constant Ksv: sodium phosphate buffer pH 7.4, 50 mM; for Stern–Volmer quenching constant Ksv: BSA 2 μM, λex 280 nm. The class given is binding. As to the method:
The fluorescence quenching data are analyzed according to the Stern–Volmer Equation (1):(1) Fo/F=1+kqτqo[Q]=1+Ksv[Q], where Fo and F is the fluorescence peak intensities in the absence and in the presence of quencher.
The maximum scatter quenching constant Kq that is due to collisions between biomolecules is 2 × 10^10 L mol^−1 s^−1 [33].
The dependence of log(Fo−F/F) vs. log[Q] is linear with a slope equal to the number of the binding sites, and y-intercept corresponds to the log of the effective binding constant (KA).
All fluorescence measurements were carried out on Perkin Elmer LS 55 fluorimeter equipped with a 1.0 cm quartz cuvette.
(§1) BSA-ILs incubated 1 hour prior to the measurements.

For data set [3], the target named is T1, bovine serum albumin (BSA). The experiment in a line: Steady-state FRET between BSA fluorophores and compound. The class given is binding. To be noted: [BSA] = [Quencher] = 2 μM; T = 25 °C.
Description: The following equations are used to estimate the steady-state FRET parameters:(3) E=1−F/Fo=Ro^6/Ro^6+ro^6, (4) Ro^6=8.8x10^−25K^2n^−4ϕJ, (5) J=∑F(λ)ε(λ)λ^4Δλ/∑F(λ)Δλ, where E is energy transfer efficacy, Ro is the characteristic distance called Förster distance or critical distance at which the energy transfer efficacy is 50%, ro is the distance between the quencher (drug) and the BSA fluorophores. […] F(λ) is the fluorescence intensity of the fluorescence of the donor, ε(λ) (L mol^−1 cm^−1) is the molar absorption coefficient of the acceptor at wavelength λ.
as §1

Data set [4] addresses T1, bovine serum albumin (BSA). The experiment in a line: ATR-FTIR analysis of the Amide I band of BSA-compound complexes (secondary structure). To be noted: for α-Helices, Relative Area of Amide I band component: BSA 0.3 mM : compound 1:1, phosphate buffer pH 7.4, 50 mM, native BSA 47.3; for Unordered Structures, Relative Area of Amide I band component: '-' = no band, native BSA 21. As to the method:
In the spectra of proteins, the Amide I band region (1700–1600 cm^−1) is mainly due to the starching vibrations of the carbonyl group (80%) and is highly sensitive to the changes in the geometry and the environment of the amide bonds. […] The band assignments were done according to Jackson and Mantsch and the analysis of the structure was taken into consideration the data on the BSA available in the literature.
The spectra of the proteins were referenced to the respective spectra of 50 mM sodium phosphate buffer, pH 7.4 containing the same amount of the corresponding IL.
Then the ATR-FTIR spectra were Fourier deconvoluted by Opus software version 5.5 using a bandwidth of 12 cm^−1, 2.9 resolution enhancement factor, and Lorentzian lineshape. Second derivative spectra were obtained using the Savitzky-Golay algorithm based on 17 smoothing points. Then, the relative contribution of each band component of the Amide I band was determined by curve fitting following the procedure of the OPUS program. In the fitting, the number of components and the initial values of their position were set as determined from the second derivative spectra. The initial bandwidth of all components was set to 12 cm^−1 and the components were approximated by mixed Lorentzian/Gaussian functions. The curve-fitting was performed according to the Local Least Squares algorithm. The assignment of the Amide I band positions to the secondary structure was done according to [36].

Data set [5] can be described thus: Thermogravimetric analysis (thermal stability, TG). To be noted: heating 10 °C min^−1, air atmosphere.
Where [6] appears, read: BSA:compound 1:1, pH 7.4, one value per band, in the order of the band positions of the column to the left.

Consider eight compounds from PMC6983093, “Ketoprofen-Based Ionic Liquids: Synthesis and Interactions with Bovine Serum Albumin” (Molecules, 2019).

By pIC50 is commonly meant the negative decadic logarithm of the IC50, by convention in mol/L.

pIC50: −log10 of the molar value. “And” between values parts separate entries of the source, which are not always exact repeats. Equal entries are not always repeated.

T1 sequence (P02769 25-607): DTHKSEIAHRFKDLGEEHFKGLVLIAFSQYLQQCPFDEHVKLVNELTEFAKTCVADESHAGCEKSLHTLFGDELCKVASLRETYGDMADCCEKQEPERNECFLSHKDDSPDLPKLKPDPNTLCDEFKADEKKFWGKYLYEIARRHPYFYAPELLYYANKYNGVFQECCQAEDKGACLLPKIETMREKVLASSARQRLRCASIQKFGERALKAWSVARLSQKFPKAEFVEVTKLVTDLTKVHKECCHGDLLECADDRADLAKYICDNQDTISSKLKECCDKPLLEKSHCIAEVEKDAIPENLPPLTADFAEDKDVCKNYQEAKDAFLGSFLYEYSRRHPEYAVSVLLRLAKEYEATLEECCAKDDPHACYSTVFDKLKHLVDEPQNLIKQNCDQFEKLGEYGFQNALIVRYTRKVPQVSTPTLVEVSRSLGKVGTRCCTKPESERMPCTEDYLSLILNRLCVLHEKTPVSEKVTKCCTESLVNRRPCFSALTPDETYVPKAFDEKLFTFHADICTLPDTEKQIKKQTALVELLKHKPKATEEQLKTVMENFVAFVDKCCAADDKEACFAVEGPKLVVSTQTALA

With `CC(C(=O)O)c1cccc(C(=O)c2ccccc2)c1` (stereo not shown) [cholinium ketoprofenate], in data set [1], the pIC50 was around 1.67.
Turning to `COc1ccc2cc(C(C)C(=O)[O-])ccc2c1.C[N+](C)(C)CCO` (stereo not shown) [cholinium naproxenate], the “Toxicity relative to the parent sodium salt” value in data set [1] is “more toxic than its parent sodium salt”.
As to `CC(C(=O)O)c1cccc(C(=O)c2ccccc2)c1` (stereo not shown) [sodium ketoprofenate], in data set [1], the pIC50 was around 6.22.
On to “L-Leucine Ethyl Ester Ketoprofenate [[L-LeuOEt][KETO]]”, for which, in data set [2], the “bimolecular quenching rate constant kq” value was 8.3 10^12, L mol^−1 s^−1; the “Binding constant KA” value is given as 7.1 10^5, L mol^−1; the “Stern–Volmer quenching constant Ksv” value is recorded as 8.3 10^4, L mol^−1. In addition, in data set [3], the “EFRET (energy transfer efficacy)” value is listed as 0.0246; the “Ro (Förster critical distance)” value was found to be 3.30 nm; the “ro (distance between quencher and BSA fluorophores)” value came to 6.14 nm. The “α-Helices, Relative Area of Amide I band component” value (from here on “α-Helices, Relative Area”) in data set [4] came to 36.7%. In data set [4] (BSA:compound 1:1, pH 7.4), the “Effect on the secondary structure of BSA (in words)” value is reported as “very close to the native BSA conformation” and the “Unordered Structures, Relative Area of Amide I band component” value (shortened to “Unordered Structures, Relative Area”) came to 21.5%. Besides, the “β-Structures, Relative Area of Amide I band components” value in data set [4] (setting [6]) is 13.5% and 13.7%.
As for “L-Valine Butyl Ester Ketoprofenate [[L-ValOBu][KETO]]”, in data set [2], the “bimolecular quenching rate constant kq” value is given as 7.3 10^12, L mol^−1 s^−1; the “Binding constant KA” value is recorded as 7.5 10^5, L mol^−1; the “Stern–Volmer quenching constant Ksv” value is recorded as 7.3 10^4, L mol^−1. Also, in data set [3], the “EFRET (energy transfer efficacy)” value was determined as 0.0520; the “Ro (Förster critical distance)” value turned out to be 3.32 nm; the “ro (distance between quencher and BSA fluorophores)” value was determined as 5.48 nm. Besides, the “α-Helices, Relative Area” value in data set [4] turned out to be 27.8%. The “Tonset (onset of the thermal degradation)” value (from here on “Tonset”) in data set [5] was determined as 101.1 °C.
In the case of “L-Valine Ethyl Ester Ketoprofenate [[L-ValOEt][KETO]]”, in data set [2], the “bimolecular quenching rate constant kq” value is 6.3 10^12, L mol^−1 s^−1; the “Binding constant KA” value is given as 8.2 10^5, L mol^−1; the “Stern–Volmer quenching constant Ksv” value is listed as 6.3 10^4, L mol^−1. In addition, in data set [3], the “EFRET (energy transfer efficacy)” value is recorded as 0.1830; the “Ro (Förster critical distance)” value is given as 3.43 nm; the “ro (distance between quencher and BSA fluorophores)” value was 4.68 nm. The “α-Helices, Relative Area” value in data set [4] is 28.8%. For the same compound, the “Unordered Structures, Relative Area” value in data set [4] (BSA:compound 1:1, pH 7.4) is recorded as 17.25%. Moreover, in data set [5], the “Tonset” value is 100.4 °C.
Consider “L-Valine Isopropyl Ester Ketoprofenate [[L-ValOiPr][KETO]]”, for which, in data set [2], the “bimolecular quenching rate constant kq” value is listed as 7.1 10^12, L mol^−1 s^−1; the “Binding constant KA” value is 1.5 10^5, L mol^−1; the “Stern–Volmer quenching constant Ksv” value is 7.1 10^4, L mol^−1. Besides, in data set [3], the “EFRET (energy transfer efficacy)” value is given as 0.0625; the “Ro (Förster critical distance)” value was 3.38 nm; the “ro (distance between quencher and BSA fluorophores)” value is 5.42 nm. Further, in data set [4], the “α-Helices, Relative Area” value was 23.8%. For the same compound, in data set [4] (BSA:compound 1:1, pH 7.4), the “Effect on the secondary structure of BSA (in words)” value is listed as “most dramatic changes in the secondary structure” and the “Unordered Structures, Relative Area” value is recorded as 11.7%.
For the compound “L-Valine Propyl Ester Ketoprofenate [[L-ValOPr][KETO]]”, in data set [2], the “bimolecular quenching rate constant kq” value is reported as 7.1 10^12, L mol^−1 s^−1; the “Binding constant KA” value is listed as 2.3 10^5, L mol^−1; the “Stern–Volmer quenching constant Ksv” value is 7.1 10^4, L mol^−1. In addition, in data set [3], the “EFRET (energy transfer efficacy)” value came out at 0.1770; the “Ro (Förster critical distance)” value is given as 3.46 nm; the “ro (distance between quencher and BSA fluorophores)” value turned out to be 4.74 nm. In addition, in data set [4], the “α-Helices, Relative Area” value was found to be 26.9%. Besides, in data set [4] (BSA:compound 1:1, pH 7.4), the “Unordered Structures, Relative Area” value turned out to be 29.2%. Besides, in data set [4] (setting [6]), the “Aromatic Residues/Aggregated Strands/Antiparallel β-Sheets, Relative Area of Amide I band components” value is on record as 11.0%. In data set [5], the “Tonset” value worked out at 52.3 °C.
